# From patent US20250295639A1, “METHODS FOR TREATING HEART DISEASES” (Cytokinetics, Incorporated, priority 2024, published 2025)
# Tests used:
# Type in all cases: in vivo, human
# [1] = system: patients with obstructive hypertrophic cardiomyopathy (oHCM); assay: FOREST-HCM: standard of care (SoC) medications withdrawal in oHCM patients treated with aficamten
# Excerpt: Safety and Outcomes of Standard of Care Medications Withdrawal in Patients with Obstructive Hypertrophic Cardiomyopathy (oHCM) Treated with Aficamten in FOREST-HCM Trial. Standard of care (SoC) medications for the treatment of obstructive hypertrophic cardiomyopathy (oHCM) are currently recommended as first-line therapy. There are, however, off-target side-effects that often render them poorly tolerated. Patients were classified as receiving SoC therapy (both first line and second line) if treated with at least one drug (beta-blocker [BB], non-dihydropyridine calcium channel blocker [CCB], and/or disopyramide). Patients were eligible for protocol-guided SoC withdrawal after receiving a stable dose of aficamten for ≥4-weeks and after Week 12 of the study, at the discretion of the site investigator. Successful SoC withdrawal was defined as at least a 50% dose-reduction in one medication relative to baseline. All patients were also required to have ≥1 clinical, echocardiographic and biomarker assessment after attempted withdrawal. Adverse events (AE) were prospectively evaluated 1-2 weeks after any SoC withdrawal. […] Independent of attempted withdrawal, patients maintained relief of obstruction, improvement in symptoms and health status, and low cardiac biomarkers (Table 1). In the group with successful SoC withdrawal, no clinically significant differences were observed between pre and post SoC withdrawal attempt (Table 1). Overall, there was a modest reduction in left ventricular ejection fraction (LVEF) of −3.5%±6.0 from baseline, also with no differences between groups.
# [2] = system: patients with symptomatic oHCM; assay: SEQUOIA-HCM: analysis by baseline Valsalva LVOT-G severity (severe <100 mmHg vs very severe ≥100 mmHg); conditions: for Change in KCCQ CSS, Mean (SD) Change from Baseline / LVOT-G - Rest, Mean (SD) Change from Baseline / LVOT-G - Valsalva, Mean (SD) Change from Baseline / Peak VO2, Mean (SD) Change from Baseline / Change in KCCQ CSS, Adjusted diff / LVOT-G - Rest, Adjusted diff / LVOT-G - Valsalva, Adjusted diff / NT-proBNP, Adjusted diff / Peak VO2, Adjusted diff / Proportional LVOT-G - Rest, Adjusted diff / Proportional LVOT-G - Valsalva, Adjusted diff / hs-cTpI, Adjusted diff: Baseline to Week 24; for Change in KCCQ CSS, Adjusted diff / LVOT-G - Rest, Adjusted diff / LVOT-G - Valsalva, Adjusted diff / NT-proBNP, Adjusted diff / Peak VO2, Adjusted diff / Proportional LVOT-G - Rest, Adjusted diff / Proportional LVOT-G - Valsalva, Adjusted diff / hs-cTpI, Adjusted diff / NYHA FC improvement, Rate difference / Proportion of patients with rest LVOT-G <30 mmHg & Valsalva LVOT-G <50 mmHg, Adjusted diff: vs placebo; for NYHA FC improvement, % of patients / Proportion of patients with rest LVOT-G <30 mmHg & Valsalva LVOT-G <50 mmHg / NYHA FC improvement, Rate difference / Proportion of patients with rest LVOT-G <30 mmHg & Valsalva LVOT-G <50 mmHg, Adjusted diff: Week 24; for proportional reduction from baseline in Valsalva (provoked) LVOT-G / proportional reduction from baseline in resting LVOT-G: week 24
# Excerpt: Patients with Hypertrophic Obstructive Cardiomyopathy and Very Severe Left Ventricular Outflow Tract Obstruction. Patients enrolled in SEQUOIA-HCM (the study of Example 8), the pivotal phase 3 controlled trial of aficamten in adults with symptomatic oHCM, were grouped according to baseline Valsalva LVOT-G (severe obstruction [<100 mmHg] versus very severe obstruction [≥100 mmHg]). The prespecified primary endpoint was the proportional change from baseline to Week 24 in rest and Valsalva LVOT-G in severe versus very severe obstruction groups. Secondary endpoints included change in symptoms, cardiac biomarkers, and exercise capacity by group (Table 14). Of the 282 patients randomized, 209 patients had severe obstruction, and 73 had very severe obstruction. Compared to baseline, there was a profound reduction in resting and provoked obstruction in both groups. By week 24, the proportional reductions (95% CI) from baseline in the severely obstructed cohort were 69% (74 to 63) and 64% (69 to 56), and 73% (81 to 63) and 71% (79 to 61) in the very severe obstruction cohort, but there was no between-group difference (p>0.05). […] The post-titration doses by group were similar, with 81% and 88% in each cohort receiving the 15 mg and 20 mg dose strengths (p=0.21). There were no instances of per protocol down-titration in the very severe obstruction group, and treatment emergent adverse events (TEAE's) were balanced between groups (any TEAE 77 [71%] in severe versus 28 [85%] in very severe obstruction; p=0.60).
# [3] = system: patients with symptomatic oHCM; assay: SEQUOIA-HCM cardiovascular magnetic resonance (CMR) substudy; conditions: Echo Measurements; CMR Cohort N = 57 (Aficamten N = 25); Week 24
# [4] = No SoC Withdrawal Group, Post (Week 24)
# [5] = No SoC Withdrawal Group, Pre (Week 12)
# [6] = No SoC Withdrawal Group, Week 24 vs Week 12
# [7] = Successful SoC Withdrawal Group, Post SoC withdrawal
# [8] = Successful SoC Withdrawal Group, Pre SoC withdrawal
# [9] = Successful SoC Withdrawal Group, post vs pre
# [10] = of the 68 who underwent withdrawal attempt
# [11] = successful SoC withdrawal cohort vs no SoC withdrawal
# [12] = Baseline Valsalva LVOT-G <100 mmHg
# [13] = Baseline Valsalva LVOT-G <100 mmHg, N = 109
# [14] = Baseline Valsalva LVOT-G ≥100mmHg
# [15] = Baseline Valsalva LVOT-G ≥100mmHg, N=33
# [16] = severe obstruction (baseline Valsalva LVOT-G <100 mmHg)
# [17] = very severe obstruction (≥100 mmHg)
smiles,measurement,setting,value
"CCc1nc(-c2ccc3c(c2)CC[C@H]3NC(=O)c2cnn(C)c2)no1 [aficamten, (R)—N-(5-(5-ethyl-1,2,4-oxadiazol-3-yl)-2,3-dihydro-1H-inden-1-yl)-1-methyl-1H-pyrazole-4-carboxamide]","KCCQ CSS, Mean (SD)",[1]; [4],88.5 (12.55)
same,"LVEF, Mean (SD)",[1]; [4],64.4 (5.3) %
same,"LVOT-G, Rest, Mean (SD)",[1]; [4],14.0 (12.6) mmHg
same,"LVOT-G, Valsalva, Mean (SD)",[1]; [4],32.2 (25.2) mmHg
same,"NT-proBNP, median",[1]; [4],158.5 pg/mL
same,NYHA class I,[1]; [4],I: 35 (54.7%) n(%)
same,NYHA class III,[1]; [4],III: 2 (3.1%) n(%)
same,NYHA class IV,[1]; [4],IV: 0 n(%)
same,"hs-cardiac-TnI, median",[1]; [4],6.3 ng/L
same,"KCCQ CSS, Mean (SD)",[1]; [5],87.3 (13.12)
same,"LVEF, Mean (SD)",[1]; [5],65.3 (4.9) %
same,"LVOT-G, Rest, Mean (SD)",[1]; [5],19.5 (17.6) mmHg
same,"LVOT-G, Valsalva, Mean (SD)",[1]; [5],42.2 (26.0) mmHg
same,"NT-proBNP, median",[1]; [5],191.5 pg/mL
same,NYHA class I,[1]; [5],I: 34 (53.19%) n(%)
same,NYHA class III,[1]; [5],"III: 3 (4,7%) n(%)"
same,NYHA class IV,[1]; [5],IV: 0 n(%)
same,"hs-cardiac-TnI, median",[1]; [5],7.6 ng/L
same,"KCCQ CSS, change",[1]; [6],1.2
same,"LVEF, change",[1]; [6],−0.9%
same,"LVOT-G, Rest, change",[1]; [6],−5.5 mmHg
same,"LVOT-G, Valsalva, change",[1]; [6],−10.0 mmHg
same,"NT-proBNP, change",[1]; [6],-3.0 pg/mL
same,"hs-cardiac-TnI, change",[1]; [6],-0.5 ng/L
same,"KCCQ CSS, Mean (SD)",[1]; [7],83.8 (18.18)
same,"LVOT-G, Rest, Mean (SD)",[1]; [7],16.6 (13.7) mmHg
same,"LVOT-G, Valsalva, Mean (SD)",[1]; [7],35.6 (29.1) mmHg
same,"NT-proBNP, median",[1]; [7],250.0 pg/mL
same,NYHA class I,[1]; [7],I: 26 (46.4%) n(%)
same,NYHA class II,[1]; [7],"II: 26 (46,4%) n(%)"
same,NYHA class III,[1]; [7],III: 4 (7.1%) n(%)
same,NYHA class IV,[1]; [7],IV: 0 n(%)
same,"hs-cardiac-TaI, median",[1]; [7],5.8 ng/L
same,"LVEF, Mean (SD)","[1]; Successful SoC Withdrawal Group, Post SoC withdrawal, site read echo",65.5 (6.4) %
same,"KCCQ CSS, Mean (SD)",[1]; [8],80.2 (17.20)
same,"LVOT-G, Rest, Mean (SD)",[1]; [8],13.2 (11.0) mmHg
same,"LVOT-G, Valsalva, Mean (SD)",[1]; [8],27.9 (22.4) mmHg
same,"NT-proBNP, median",[1]; [8],330.0 pg/mL
same,NYHA class I,[1]; [8],I: 23 (41.1%) n(%)
same,NYHA class II,[1]; [8],II: 25(44.6%) n(%)
same,NYHA class III,[1]; [8],III: 8(14.3%) n(%)
same,NYHA class IV,[1]; [8],IV: 0 n(%)
same,"hs-cardiac-TaI, median",[1]; [8],5.8 ng/L
same,"LVEF, Mean (SD)","[1]; Successful SoC Withdrawal Group, Pre SoC withdrawal, site read echo",64.8 (5.8) %
same,"KCCQ CSS, change (95% CI)",[1]; [9],"3.5 (−0.5, 7.5)"
same,"LVEF, change",[1]; [9],0.6%
same,"LVOT-G, Rest, change",[1]; [9],3.4 mmHg
same,"LVOT-G, Valsalva, change (95% CI)",[1]; [9],"7.7 (0.8, 14.6), mmHg"
same,"NT-proBNP, change",[1]; [9],-68.0 pg/mL
same,"hs-cardiac-TaI, change",[1]; [9],0.0 ng/L
same,monotherapy patients who later restarted a SoC medication,"[1]; human, in vivo",13.2%
same,serious AEs attributed to SoC withdrawal,"[1]; human, in vivo",no serious AEs
same,patients achieving aficamten monotherapy,[1]; [10],44.1%
same,patients achieving successful SoC withdrawal (at least 50% dose-reduction in one medication),[1]; [10],92.6%
same,patients completely discontinuing at least one SoC medication,[1]; [10],61.8%
same,reduction in LVEF from baseline (mean±SD),[1]; overall,−3.5%
same,"KCCQ CSS, Δ change between cohorts at Week 24",[1]; [11],2.3
same,"LVEF, Δ change between cohorts at Week 24",[1]; [11],1.5%
same,"LVOT-G, Rest, Δ change between cohorts at Week 24",[1]; [11],8.9 mmHg
same,"LVOT-G, Valsalva, Δ change between cohorts at Week 24",[1]; [11],17.7 mmHg
same,"NT-proBNP, Δ change between cohorts at Week 24",[1]; [11],-65.0 pg/mL
same,"hs-cardiac-TnI, Δ change between cohorts at Week 24",[1]; [11],0.5 ng/L
same,"Change in KCCQ CSS, Mean (SD) Change from Baseline",[2]; [12],12
same,"LVOT-G - Rest, Mean (SD) Change from Baseline",[2]; [12],−28 ± 25 mmHg
same,"LVOT-G - Valsalva, Mean (SD) Change from Baseline",[2]; [12],−38 ± 31 mmHg
same,"Peak VO2, Mean (SD) Change from Baseline",[2]; [12],1.8 ± 3.2 mL/min/kg
same,"Change in KCCQ CSS, Adjusted diff",[2]; [12],+8
same,"LVOT-G - Rest, Adjusted diff",[2]; [12],−35 mmHg
same,"LVOT-G - Valsalva, Adjusted diff",[2]; [12],−43 mmHg
same,"NT-proBNP, Adjusted diff",[2]; [12],−79%
same,"Peak VO2, Adjusted diff",[2]; [12],+1.6 mL/kg/min
same,"Proportional LVOT-G - Rest, Adjusted diff",[2]; [12],−69%
same,"Proportional LVOT-G - Valsalva, Adjusted diff",[2]; [12],−64%
same,"hs-cTpI, Adjusted diff",[2]; [12],−45%
same,"NYHA FC improvement, % of patients",[2]; [13],(62%)
same,Proportion of patients with rest LVOT-G <30 mmHg & Valsalva LVOT-G <50 mmHg,[2]; [13],(73%)
same,"NYHA FC improvement, Rate difference",[2]; [12],+38.2%
same,"Proportion of patients with rest LVOT-G <30 mmHg & Valsalva LVOT-G <50 mmHg, Adjusted diff",[2]; [12],+63.7%
same,"Change in KCCQ CSS, Mean (SD) Change from Baseline",[2]; [14],9
same,"LVOT-G - Rest, Mean (SD) Change from Baseline",[2]; [14],−60 ± 29 mmHg
same,"LVOT-G - Valsalva, Mean (SD) Change from Baseline",[2]; [14],−82 ± 38 mmHg
same,"Peak VO2, Mean (SD) Change from Baseline",[2]; [14],1.6 ± 2.8 mL/min/kg
same,"Change in KCCQ CSS, Adjusted diff",[2]; [14],+4
same,"LVOT-G - Rest, Adjusted diff",[2]; [14],−52 mmHg
same,"LVOT-G - Valsalva, Adjusted diff",[2]; [14],−68 mmHg
same,"NT-proBNP, Adjusted diff",[2]; [14],−85%
same,"Peak VO2, Adjusted diff",[2]; [14],+1.8 mL/kg/min
same,"Proportional LVOT-G - Rest, Adjusted diff",[2]; [14],−73%
same,"Proportional LVOT-G - Valsalva, Adjusted diff",[2]; [14],−71%
same,"hs-cTpI, Adjusted diff",[2]; [14],−34%
same,"NYHA FC improvement, % of patients",[2]; [15],(49%)
same,Proportion of patients with rest LVOT-G <30 mmHg & Valsalva LVOT-G <50 mmHg,[2]; [15],(52%)
same,"NYHA FC improvement, Rate difference",[2]; [14],+22.4%
same,"Proportion of patients with rest LVOT-G <30 mmHg & Valsalva LVOT-G <50 mmHg, Adjusted diff",[2]; [14],+51.2%
same,proportional reduction from baseline in Valsalva (provoked) LVOT-G,[2]; [16],64%
same,proportional reduction from baseline in resting LVOT-G,[2]; [16],69%
same,proportional reduction from baseline in Valsalva (provoked) LVOT-G,[2]; [17],71%
same,proportional reduction from baseline in resting LVOT-G,[2]; [17],73%
same,LV Mass Index,[3],120 ± 32 g/m2
